Experimental data published in US12419852B2, “Method for treating lysosomal storage disease” (Exerkine Corporation, priority 2018, dated 2025).

Columns and labels:
[1] = test system: autophagic buildup in skeletal muscle of GAA knockout mice; test: Autophagic buildup scored on electron micrographs of skeletal muscle; assay type: in vivo; settings: skeletal muscle electron micrographs after 8 weeks; 0=no buildup to 3=severe, 7 micrographs; FIG. 2A
Protocol: (§1) Experimental groups All mice were fed standard rodent chow (chow diet; Harlan Teklad 8640 22/5), as a base diet with the exception of the group receiving a conventional […] diet (% kcal of SRT diet being 93.2% fat, 6.4% protein and 0.4% carbohydrates; Envigo, TD.07797). […]
(§2) Grip strength, motor coordination, and balance were evaluated prior to the introduction of the experimental diets. Motor coordination and balance were evaluated using a rotarod apparatus (Harvard Apparatus, MA), while forelimb grip strength was evaluated using a metal gripping bar attached to a DFIS-10 Chatillon digital force gage. Upon completion of the baseline testing, all groups were administered their respective experimental diets for a period of 8 weeks, when grip strength, motor coordination, and balance were re-evaluated as endpoint measures. […] The proteins p62, ubiquitin and mitochondrial complexes 1-5 were evaluated in quadriceps muscle using the following antibodies in 5% milk: p62 (Cell Signalling, Cat. #51145), ubiquitin (Enzo Life Sciences, Cat. #UG95100100) and Total OXPHOS Rodent WB Antibody Cocktail (Abcam, Cat. #ab110413). Autophagic buildup was determined using electron micrographs generated by the McMaster Electron Microscopy Facility. […]

GAA knockout mice [2] = test: Forelimb grip strength in GAA knockout mice (Pompe disease model); assay type: in vivo; settings: change over the 8 week period, FIG. 1A
Protocol: (§3) To determine if the ketogenic agent and enhanced ketogenic composition could improve autophagic activity, muscle function and mitochondrial capacity in mice having a lysosomal storage disease, mice lacking the acid alpha glucosidase (GAA) protein (an established mouse model of Pompe disease) were administered the ketogenic agent, the enhanced ketogenic composition or one of several control diets for a period of 8 weeks.
(§4) Breeding of GAA mice. Four GAA heterozygous breeding pairs (HET; GAA−/+; 6neo/6+) were obtained from Jackson Laboratories (Maine, USA) to generate homozygous GAA knock-outs (GAA; GAA−/−; 6neo/6neo). Mice were housed at McMaster University's Central Animal Facility in standard cages in 12-h light/dark cycles with ad libitum access to water and their respective diets. […]
(§5) Grip strength, motor coordination, and balance were evaluated prior to the introduction of the experimental diets. Motor coordination and balance were evaluated using a rotarod apparatus (Harvard Apparatus, MA), while forelimb grip strength was evaluated using a metal gripping bar attached to a DFIS-10 Chatillon digital force gage. Upon completion of the baseline testing, all groups were administered their respective experimental diets for a period of 8 weeks, when grip strength, motor coordination, and balance were re-evaluated as endpoint measures. […]

p62 protein = test: Western blotting for p62 in quadriceps muscle; assay type: in vivo, mice; settings: western blot, after 8 weeks, FIG. 2B
Protocol: as §1, §2

[3] = test system: Complex IV enzyme activity; test: Complex IV (COX IV) enzymatic activity in quadriceps muscle; assay type: in vivo, mice; settings: skeletal muscle, after 8 weeks
Text: as §1
To measure COX IV enzymatic activity, quadriceps muscle was homogenized in Lysing Matrix D tubes (MP Biomedicals, Solon, OH, USA) using the FastPrep-24 Tissue and Cell Homogenizer (MP Biomedicals, Solon, OH, USA) for 5×5-second cycles at a speed of 4.0 m/s with samples placed on ice for 5 minutes between cycles. […] The rate of oxidation of reduced cytochrome c was measured at 550 nm for 3 min at 37° C.

[4] = test system: mitochondrial complexes 1-5; test: Western blotting for mitochondrial complexes 1-5 protein in quadriceps muscle; assay type: in vivo, mice; settings: western blot, range over the five complexes, FIGS. 3B-F
Protocol: as §1, §2

GAA knockout mice [5] = test: Rotarod performance (motor coordination and balance) in GAA knockout mice; assay type: in vivo; settings: change over 8 weeks, FIG. 1B
Protocol: as §3, §4, §5

[6] = Pompe disease, 2 weeks after the infusion; cited from earlier work

Molecule | autophagic buildup score (per mouse total score out of 21) [1] | decline in forelimb grip strength (GAA knockout mice [2]) | p62 protein expression lower than GAA CON group (p62 protein) [%] | ratio of mean complex IV enzyme activity to mean complex IV protein content, lower compared to WT CON [3] [%] | protein levels of mitochondrial complexes 1-5 higher compared to WT CON [4] | improvement in duration of time able to balance on the rotarod apparatus (GAA knockout mice [5]) | fraction of infused protein retained within skeletal muscle [6]
CC(O)CCO (stereo not shown) [ERT+1,3 BD, 1,3 butanediol] | 12/21 | relatively unchanged | 59 | 41 | 219-647% | 46% | –
ERT: Enzyme replacement therapy: bi-weekly intravenous injections of 40 mg/kg recombinant GAA enzyme (Myozyme; Genzyme) | 15/21 | 20% | 23 | 43 | 103-250% | little or no change | –
recombinant GAA protein: Infused recombinant acid alpha-glucosidase (GAA) protein used as enzyme replacement therapy in Pompe disease | – | – | – | – | – | – | 1-3%
